In PubChem BioAssay (NCI):
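All cell lines were grown in 96-well plates and treated with compound for 48 hours. At the GI50, growth is halved. TGI: concentration producing complete growth inhibition.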

Legend:
Experiment in all cases: inhibition of tumour cell growth, NCI panel, 48 h
MDA-MB-231 breast = system: MDA-MB-231 breast
SF-539 CNS = system: SF-539 CNS
NCI-H460 lung = system: NCI-H460 lung
COLO 205 colon = system: COLO 205 colon
UACC-257 melanoma = system: UACC-257 melanoma
TK-10 renal = system: TK-10 renal
CCRF-CEM leukemia = system: CCRF-CEM leukemia
CAKI-1 renal = system: CAKI-1 renal
SK-MEL-5 melanoma = system: SK-MEL-5 melanoma
HCT-15 colon = system: HCT-15 colon
SK-MEL-28 melanoma = system: SK-MEL-28 melanoma
SF-268 CNS = system: SF-268 CNS
EKVX NSCLC = system: EKVX NSCLC
A549 NSCLC = system: A549 NSCLC
OVCAR-5 ovarian = system: OVCAR-5 ovarian
BT-549 breast = system: BT-549 breast
T-47D breast = system: T-47D breast
UO-31 renal = system: UO-31 renal
OVCAR-8 ovarian = system: OVCAR-8 ovarian
HOP-62 NSCLC = system: HOP-62 NSCLC
A498 renal = system: A498 renal
NCI-H226 lung = system: NCI-H226 lung
OVCAR-4 ovarian = system: OVCAR-4 ovarian
NCI-H522 lung = system: NCI-H522 lung
NCI-H23 lung = system: NCI-H23 lung
LOX IMVI melanoma = system: LOX IMVI melanoma
RXF 393 renal = system: RXF 393 renal
DU-145 prostate = system: DU-145 prostate
U251 CNS = system: U251 CNS
IGROV1 ovarian = system: IGROV1 ovarian
M14 melanoma = system: M14 melanoma
HOP-92 NSCLC = system: HOP-92 NSCLC
OVCAR-3 ovarian = system: OVCAR-3 ovarian
HT29 colon = system: HT29 colon
MCF7 breast = system: MCF7 breast
SF-295 CNS = system: SF-295 CNS
SW-620 colon = system: SW-620 colon
HL-60(TB) leukemia = system: HL-60(TB) leukemia
SNB-19 CNS = system: SNB-19 CNS
KM12 colon = system: KM12 colon
HCC-2998 colon = system: HCC-2998 colon
PC-3 prostate = system: PC-3 prostate
MOLT-4 leukemia = system: MOLT-4 leukemia
MDA-MB-435 = system: MDA-MB-435
SN12C renal = system: SN12C renal
K-562 leukemia = system: K-562 leukemia
NCI/ADR-RES ovarian = system: NCI/ADR-RES ovarian
SNB-75 CNS = system: SNB-75 CNS
SK-OV-3 ovarian = system: SK-OV-3 ovarian
SR leukemia = system: SR leukemia
HS 578T breast = system: HS 578T breast
HCT-116 colon = system: HCT-116 colon
ACHN renal = system: ACHN renal
786-0 renal = system: 786-0 renal
MDA-MB-468 breast = system: MDA-MB-468 breast
UACC-62 melanoma = system: UACC-62 melanoma
MALME-3M melanoma = system: MALME-3M melanoma

`CC[C@]12C=CCN3CC[C@@]4(c5ccc(OC)cc5N(C)[C@H]4[C@@](O)(C(=O)OC)[C@@H]1OC(=O)CCC[P+](c1ccc(OC)cc1)(c1ccc(OC)cc1)c1ccc(OC)cc1)[C@@H]32` was tested. Which GI50 (MDA-MB-231 breast) did it give?
Its GI50 is 254 nM.

What about the TGI (MDA-MB-231 breast) of the same molecule?
The TGI was 654 nM.

What about the GI50 (SF-539 CNS) of the same molecule?
Its GI50 is 622 nM.

What about the TGI (SF-539 CNS) of the same molecule?
Its TGI is 1670 nM.

What about the GI50 (NCI-H460 lung) of the same molecule?
Its GI50 is 666 nM.

What about the TGI (NCI-H460 lung) of the same molecule?
The TGI was 2360 nM.

What about the GI50 (COLO 205 colon) of the same molecule?
The GI50 was 192 nM.

And the TGI (COLO 205 colon)?
Its TGI is 369 nM.

And the GI50 (UACC-257 melanoma)?
Its GI50 is 489 nM.

And the TGI (UACC-257 melanoma)?
The TGI was 1760 nM.

And the GI50 (TK-10 renal)?
The GI50 was 1400 nM.

What about the TGI (TK-10 renal) of the same molecule?
Its TGI is 2870 nM.

What about the GI50 (CCRF-CEM leukemia) of the same molecule?
Its GI50 is 582 nM.

What about the TGI (CCRF-CEM leukemia) of the same molecule?
The TGI was 2020 nM.

What about the GI50 (CAKI-1 renal) of the same molecule?
Its GI50 is 4360 nM.

What about the TGI (CAKI-1 renal) of the same molecule?
The TGI was 9190 nM.

What about the GI50 (SK-MEL-5 melanoma) of the same molecule?
The GI50 was 722 nM.

What about the TGI (SK-MEL-5 melanoma) of the same molecule?
The TGI was 1870 nM.

And the GI50 (HCT-15 colon)?
Its GI50 is 2510 nM.

What about the TGI (HCT-15 colon) of the same molecule?
The TGI was 7000 nM.

And the GI50 (SK-MEL-28 melanoma)?
The GI50 was 477 nM.

What about the TGI (SK-MEL-28 melanoma) of the same molecule?
The TGI was 1640 nM.

What about the GI50 (SF-268 CNS) of the same molecule?
The GI50 was 318 nM.

What about the TGI (SF-268 CNS) of the same molecule?
The TGI was 1460 nM.

And the GI50 (EKVX NSCLC)?
Its GI50 is 737 nM.

And the TGI (EKVX NSCLC)?
Its TGI is 3350 nM.

What about the GI50 (A549 NSCLC) of the same molecule?
Its GI50 is 591 nM.

What about the TGI (A549 NSCLC) of the same molecule?
Its TGI is 4390 nM.

And the GI50 (OVCAR-5 ovarian)?
The GI50 was 686 nM.

And the TGI (OVCAR-5 ovarian)?
Its TGI is 2210 nM.

What about the GI50 (BT-549 breast) of the same molecule?
The GI50 was 532 nM.

What about the TGI (BT-549 breast) of the same molecule?
Its TGI is 1350 nM.

And the GI50 (T-47D breast)?
The GI50 was 309 nM.

What about the TGI (T-47D breast) of the same molecule?
The TGI was 1600 nM.

What about the GI50 (UO-31 renal) of the same molecule?
The GI50 was 3090 nM.

What about the TGI (UO-31 renal) of the same molecule?
The TGI was 15500 nM.

And the GI50 (OVCAR-8 ovarian)?
The GI50 was 1420 nM.

What about the TGI (OVCAR-8 ovarian) of the same molecule?
The TGI was 3870 nM.

What about the GI50 (HOP-62 NSCLC) of the same molecule?
Its GI50 is 1040 nM.

What about the TGI (HOP-62 NSCLC) of the same molecule?
The TGI was 2670 nM.

And the GI50 (A498 renal)?
The GI50 was 2020 nM.

What about the TGI (A498 renal) of the same molecule?
The TGI was 5670 nM.

And the GI50 (NCI-H226 lung)?
Its GI50 is 1430 nM.

And the TGI (NCI-H226 lung)?
The TGI was 3870 nM.

And the GI50 (OVCAR-4 ovarian)?
Its GI50 is 537 nM.

What about the TGI (OVCAR-4 ovarian) of the same molecule?
The TGI was 3440 nM.

What about the GI50 (NCI-H522 lung) of the same molecule?
The GI50 was 334 nM.

What about the TGI (NCI-H522 lung) of the same molecule?
The TGI was 1180 nM.

And the GI50 (NCI-H23 lung)?
Its GI50 is 472 nM.

And the TGI (NCI-H23 lung)?
The TGI was 1660 nM.

What about the GI50 (LOX IMVI melanoma) of the same molecule?
Its GI50 is 490 nM.

What about the TGI (LOX IMVI melanoma) of the same molecule?
Its TGI is 1590 nM.

And the GI50 (RXF 393 renal)?
Its GI50 is 362 nM.

What about the TGI (RXF 393 renal) of the same molecule?
Its TGI is 1340 nM.

What about the GI50 (DU-145 prostate) of the same molecule?
The GI50 was 635 nM.

What about the TGI (DU-145 prostate) of the same molecule?
Its TGI is 4340 nM.

And the GI50 (U251 CNS)?
The GI50 was 360 nM.

And the TGI (U251 CNS)?
Its TGI is 1370 nM.

And the GI50 (IGROV1 ovarian)?
Its GI50 is 455 nM.

What about the TGI (IGROV1 ovarian) of the same molecule?
Its TGI is 1600 nM.

And the GI50 (M14 melanoma)?
Its GI50 is 638 nM.

What about the TGI (M14 melanoma) of the same molecule?
Its TGI is 1870 nM.

And the GI50 (HOP-92 NSCLC)?
Its GI50 is 279 nM.

And the TGI (HOP-92 NSCLC)?
Its TGI is 1080 nM.

What about the GI50 (OVCAR-3 ovarian) of the same molecule?
Its GI50 is 422 nM.

And the TGI (OVCAR-3 ovarian)?
The TGI was 1570 nM.

What about the GI50 (HT29 colon) of the same molecule?
The GI50 was 284 nM.

And the TGI (HT29 colon)?
The TGI was 859 nM.

What about the GI50 (MCF7 breast) of the same molecule?
The GI50 was 383 nM.

What about the TGI (MCF7 breast) of the same molecule?
The TGI was 1430 nM.

And the GI50 (SF-295 CNS)?
Its GI50 is 1250 nM.

What about the TGI (SF-295 CNS) of the same molecule?
Its TGI is 3030 nM.

And the GI50 (SW-620 colon)?
Its GI50 is 557 nM.

What about the TGI (SW-620 colon) of the same molecule?
Its TGI is 2050 nM.

And the GI50 (HL-60(TB) leukemia)?
Its GI50 is 237 nM.

What about the TGI (HL-60(TB) leukemia) of the same molecule?
The TGI was 800 nM.

What about the GI50 (SNB-19 CNS) of the same molecule?
Its GI50 is 341 nM.

And the TGI (SNB-19 CNS)?
Its TGI is 1350 nM.

And the GI50 (KM12 colon)?
The GI50 was 464 nM.

What about the TGI (KM12 colon) of the same molecule?
The TGI was 1560 nM.

What about the GI50 (HCC-2998 colon) of the same molecule?
The GI50 was 446 nM.

What about the TGI (HCC-2998 colon) of the same molecule?
Its TGI is 1570 nM.

What about the GI50 (PC-3 prostate) of the same molecule?
Its GI50 is 414 nM.

What about the TGI (PC-3 prostate) of the same molecule?
The TGI was 2150 nM.

And the GI50 (MOLT-4 leukemia)?
Its GI50 is 621 nM.

And the TGI (MOLT-4 leukemia)?
The TGI was 2380 nM.

And the GI50 (MDA-MB-435)?
The GI50 was 381 nM.

What about the TGI (MDA-MB-435) of the same molecule?
The TGI was 1420 nM.

And the GI50 (SN12C renal)?
The GI50 was 458 nM.

What about the TGI (SN12C renal) of the same molecule?
Its TGI is 1510 nM.

What about the GI50 (K-562 leukemia) of the same molecule?
Its GI50 is 556 nM.

What about the TGI (K-562 leukemia) of the same molecule?
The TGI was 2130 nM.

What about the GI50 (NCI/ADR-RES ovarian) of the same molecule?
Its GI50 is 18100 nM.

And the TGI (NCI/ADR-RES ovarian)?
Its TGI is 49700 nM.

What about the GI50 (SNB-75 CNS) of the same molecule?
The GI50 was 178 nM.

What about the TGI (SNB-75 CNS) of the same molecule?
Its TGI is 735 nM.

What about the GI50 (SK-OV-3 ovarian) of the same molecule?
The GI50 was 595 nM.

What about the TGI (SK-OV-3 ovarian) of the same molecule?
The TGI was 1680 nM.

And the GI50 (SR leukemia)?
Its GI50 is 397 nM.

What about the TGI (SR leukemia) of the same molecule?
The TGI was 1780 nM.

And the GI50 (HS 578T breast)?
Its GI50 is 1180 nM.

And the TGI (HS 578T breast)?
The TGI was 3970 nM.

What about the GI50 (HCT-116 colon) of the same molecule?
The GI50 was 469 nM.

What about the TGI (HCT-116 colon) of the same molecule?
The TGI was 1660 nM.

What about the GI50 (ACHN renal) of the same molecule?
Its GI50 is 2760 nM.

What about the TGI (ACHN renal) of the same molecule?
The TGI was 7890 nM.

What about the GI50 (786-0 renal) of the same molecule?
The GI50 was 1530 nM.

And the TGI (786-0 renal)?
The TGI was 3370 nM.

And the GI50 (MDA-MB-468 breast)?
Its GI50 is 166 nM.

What about the TGI (MDA-MB-468 breast) of the same molecule?
The TGI was 491 nM.

And the GI50 (UACC-62 melanoma)?
Its GI50 is 396 nM.

What about the TGI (UACC-62 melanoma) of the same molecule?
The TGI was 1170 nM.

And the GI50 (MALME-3M melanoma)?
The GI50 was 224 nM.

What about the TGI (MALME-3M melanoma) of the same molecule?
Its TGI is 536 nM.
